From ChEMBL document CHEMBL3414439, “Design, synthesis and biological evaluation of piperic acid triazolyl derivatives as potent anti-inflammatory agents” (Eur J Med Chem, 2015)
Activity calls are given as the source filed them. No cut-off for these calls is given here.

Assays:
[1] = test system: Rattus norvegicus; assay: Ulcerogenic effect in Albino Wistar rat assessed as damage in gastric mucosa at 60 mg, po after 5 hrs; format: toxicity, organism-based; settings: in vivo
[2] = Inhibition of carrageenan-induced COX-2 expression in paw tissue (unknown origin) by immunohistochemistry; format: functional
[3] = Reduction in carrageenan-induced lipid peroxidation in gastric mucosa tissue (unknown origin) assessed as MDA after 30 mins; format: functional, tissue-based
[4] = test system: Mus musculus; assay: Analgesic activity in Swiss Albino acetic acid-induced writhing mouse model assessed as number of writhes at 20 mg/kg, po administered 30 mins before to acetic acid challenge measured for 10 mins (reference value: 92.8 +/- 1.49); format: functional
[5] = Inhibition of carrageenan-induced NFkappaB expression in paw tissue (unknown origin) by immunohistochemistry; format: functional
[6] = test system: Rattus norvegicus; assay: Antiinflammatory activity in rat assessed as inhibition of carrageenan-induced paw volume at 20 mg/kg, po administered 1 hr prior to carrageenan challenge measured after 3 hrs relative to vehicle-treated control; format: functional
[7] = Cytotoxicity against mouse RAW264.7 cells assessed as cell viability at 20 uM after 24 hrs by MTT assay; format: cell-based; settings: read-out: Activity
[8] = test system: Rattus norvegicus; assay: Antiinflammatory activity in rat assessed as inhibition of carrageenan-induced paw volume at 20 mg/kg, po administered 1 hr prior to carrageenan challenge measured after 3 hrs (reference value: 1.68 +/- 0.029 ml); format: functional
[9] = test system: RAW264.7; assay: Antiinflammatory activity against mouse RAW264.7 cells assessed as inhibition of LPS-induced TNFalpha level at 20 uM after 24 hrs by ELISA relative to untreated control; format: functional; settings: RAW264.7, 24 h
[10] = Inhibition of carrageenan-induced TNFalpha expression in paw tissue (unknown origin) by immunohistochemistry; format: functional
[11] = test system: Mus musculus; assay: Analgesic activity in Swiss Albino acetic acid-induced writhing mouse model assessed as protection at 20 mg/kg, po administered 30 mins before to acetic acid challenge measured for 10 mins; format: functional
[12] = test system: Rattus norvegicus; assay: Antiinflammatory activity in rat assessed as inhibition of carrageenan-induced paw volume at 20 mg/kg, po administered 1 hr prior to carrageenan challenge measured after 5 hrs (reference value: 1.70 +/- 0.020 ml); format: functional
[13] = test system: Rattus norvegicus; assay: Antiinflammatory activity in rat assessed as inhibition of carrageenan-induced paw volume at 20 mg/kg, po administered 1 hr prior to carrageenan challenge measured after 5 hrs relative to vehicle-treated control; format: functional

| SMILES | Activity [1] | inhibition [2] | inhibition [3] | Activity [4] | inhibition [5] | inhibition in vivo at 20 mg/kg [6] | viability at 24 h, 20 µM [7] | Activity [8] | inhibition at 20 µM [9] | inhibition [10] | Activity [11] | Activity [12] | inhibition in vivo at 20 mg/kg [13] |
| --- | --- | --- | --- | --- | --- | --- | --- | --- | --- | --- | --- | --- | --- |
| O=C(/C=C/C=C/c1ccc2c(c1)OCO2)OCc1cn(-c2ccccc2Br)nn1 | Non-toxic | Active | Active | 42.6 | Active | 76.1% | 90% | 0.56 mL | 70.6% | Active | 54.09% | 0.51 mL | 80.4% |
| O=C(/C=C/C=C/c1ccc2c(c1)OCO2)OCc1cn(-c2cccc([N+](=O)[O-])c2)nn1 |  |  |  |  |  | 15.6% |  | 1.44 mL |  |  |  | 1.46 mL | 15.4% |
| Cc1ccc(-n2cc(COC(=O)/C=C/C=C/c3ccc4c(c3)OCO4)nn2)cc1 |  |  |  |  |  | 46.2% |  | 1.01 mL |  |  |  | 0.98 mL | 49.1% |
| COc1ccc2c(c1)c(CC(=O)O)c(C)n2C(=O)c1ccc(Cl)cc1 [INDOMETHACIN] | Toxic | Active |  | 39.4 | Active | 72% | 55% | 0.608 mL | 68% | Active | 57.43% | 0.54 mL | 77% |
| COc1ccc(-n2cc(COC(=O)/C=C/C=C/c3ccc4c(c3)OCO4)nn2)cc1 |  |  |  |  |  | 54% |  | 0.88 mL |  |  |  | 0.86 mL | 55.9% |
| O=C(/C=C/C=C/c1ccc2c(c1)OCO2)OCc1cn(-c2ccc(Br)cc2)nn1 |  |  |  |  |  | 53.6% |  | 0.89 mL |  |  |  | 0.87 mL | 55.5% |
| O=C(/C=C/C=C/c1ccc2c(c1)OCO2)OCc1cn(-c2ccc(F)cc2)nn1 |  |  |  |  |  | 55.5% |  | 0.87 mL |  |  |  | 0.85 mL | 57% |
| Cc1ccc(-n2cc(COC(=O)/C=C/C=C/c3ccc4c(c3)OCO4)nn2)cc1C |  |  |  | 51.2 |  | 67.9% |  | 0.68 mL |  |  | 44.93% | 0.66 mL | 70.3% |
| O=C(/C=C/C=C/c1ccc2c(c1)OCO2)N1CCCCC1 [PIPERINE] | Non-toxic |  |  |  |  | 53.7% |  | 0.676 mL | 49.7% |  |  | 0.67 mL | 54.7% |
| O=C(/C=C/C=C/c1ccc2c(c1)OCO2)OCc1cn(-c2ccc(Cl)cc2Cl)nn1 | Non-toxic |  | Active | 51 |  | 69.3% | 90% | 0.64 mL | 60.7% |  | 45.04% | 0.622 mL | 71.2% |
| CCc1ccc(-n2cc(COC(=O)/C=C/C=C/c3ccc4c(c3)OCO4)nn2)cc1 |  |  |  |  |  | 57.5% |  | 0.83 mL |  |  |  | 0.8 mL | 60% |
| CCOc1ccc(-n2cc(COC(=O)/C=C/C=C/c3ccc4c(c3)OCO4)nn2)cc1 |  |  |  |  |  | 32.9% |  | 1.1 mL |  |  |  | 1.14 mL | 36.5% |
| O=C(/C=C/C=C/c1ccc2c(c1)OCO2)OCc1cn(-c2ccccc2Cl)nn1 | Non-toxic | Active | Active | 45.8 | Active | 74.5% | 90% | 0.58 mL | 73.7% | Active | 50.64% | 0.56 mL | 76.7% |
| O=C(/C=C/C=C/c1ccc2c(c1)OCO2)OCc1cn(-c2ccc(Cl)c(Cl)c2)nn1 | Non-toxic |  | Active | 46.4 |  | 69.6% | 90% | 0.632 mL | 63.6% |  | 50% | 0.588 mL | 73% |
| Cc1ccccc1-n1cc(COC(=O)/C=C/C=C/c2ccc3c(c2)OCO3)nn1 |  |  |  |  |  | 51.5% |  | 0.91 mL |  |  |  | 0.88 mL | 54.6% |
| O=C(/C=C/C=C/c1ccc2c(c1)OCO2)OCc1cn(-c2ccc([N+](=O)[O-])cc2)nn1 |  |  |  |  |  | 19.6% |  | 1.39 mL |  |  |  | 1.37 mL | 22.1% |
| O=C(/C=C/C=C/c1ccc2c(c1)OCO2)OCc1cn(-c2ccccc2F)nn1 |  |  |  | 45.8 |  | 68.2% |  | 0.68 mL |  |  | 48.7% | 0.65 mL | 70.8% |
| O=C(/C=C/C=C/c1ccc2c(c1)OCO2)OCc1cn(-c2ccccc2)nn1 |  |  |  |  |  | 37% |  | 1.12 mL |  |  |  | 1.11 mL | 38.5% |
| COc1ccccc1-n1cc(COC(=O)/C=C/C=C/c2ccc3c(c2)OCO3)nn1 |  |  |  |  |  | 61.6% |  | 0.76 mL |  |  |  | 0.72 mL | 65% |
| O=C(/C=C/C=C/c1ccc2c(c1)OCO2)OCc1cn(-c2ccc(Cl)cc2)nn1 |  |  |  |  |  | 57.5% |  | 0.83 mL |  |  |  | 0.81 mL | 59.7% |
| O=C(/C=C/C=C/c1ccc2c(c1)OCO2)OCc1cn(-c2cccc(Cl)c2)nn1 |  |  |  |  |  | 64.7% |  | 0.71 mL |  |  |  | 0.69 mL | 67.8% |
